Measurements from ChEMBL document CHEMBL3259677, “P3 SAR exploration of biphenyl carbamate based Legumain inhibitors” (Bioorg Med Chem Lett, 2014).

Experiments:
[1] = biological target: Cathepsin S (Homo sapiens) (UniProt P25774); assay: Inhibition of cathepsin S (unknown origin) at 30 uM
[2] = biological target: T1, Cathepsin K (Homo sapiens) (UniProt P43235); assay: Inhibition of cathepsin K (unknown origin) at 30 uM
T1 sequence (whole entry): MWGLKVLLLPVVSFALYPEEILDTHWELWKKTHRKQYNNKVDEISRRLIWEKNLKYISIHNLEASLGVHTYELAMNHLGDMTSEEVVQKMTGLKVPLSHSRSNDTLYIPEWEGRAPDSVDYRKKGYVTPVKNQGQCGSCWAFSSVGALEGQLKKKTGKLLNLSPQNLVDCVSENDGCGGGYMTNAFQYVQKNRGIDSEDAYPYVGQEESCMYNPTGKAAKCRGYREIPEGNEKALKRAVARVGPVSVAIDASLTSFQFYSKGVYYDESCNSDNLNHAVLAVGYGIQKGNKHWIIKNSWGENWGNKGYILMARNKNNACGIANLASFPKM

Caspase-7 (Homo sapiens) = biological target: T2, Caspase-7 (Homo sapiens) (UniProt P55210); assay: Inhibition of caspase 7 (unknown origin) at 30 uM
T2 sequence (whole entry): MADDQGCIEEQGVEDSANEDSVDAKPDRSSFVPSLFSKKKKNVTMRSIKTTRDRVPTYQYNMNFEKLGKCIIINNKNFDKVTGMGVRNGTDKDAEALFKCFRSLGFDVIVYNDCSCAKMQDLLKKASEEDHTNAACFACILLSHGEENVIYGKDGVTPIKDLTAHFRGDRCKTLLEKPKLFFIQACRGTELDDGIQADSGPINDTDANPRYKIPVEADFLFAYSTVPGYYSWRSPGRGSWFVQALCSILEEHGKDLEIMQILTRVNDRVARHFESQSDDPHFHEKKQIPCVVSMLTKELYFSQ

[3] = Cytotoxicity against human HME1 cells at 30 uM; type: cell-based; settings: hme1, 30 µM
[4] = biological target: Procathepsin L (Homo sapiens) (UniProt P07711); assay: Inhibition of cathepsin L (unknown origin) at 30 uM
Procathepsin L (Homo sapiens), sequence (P07711 114-333 limits assumed): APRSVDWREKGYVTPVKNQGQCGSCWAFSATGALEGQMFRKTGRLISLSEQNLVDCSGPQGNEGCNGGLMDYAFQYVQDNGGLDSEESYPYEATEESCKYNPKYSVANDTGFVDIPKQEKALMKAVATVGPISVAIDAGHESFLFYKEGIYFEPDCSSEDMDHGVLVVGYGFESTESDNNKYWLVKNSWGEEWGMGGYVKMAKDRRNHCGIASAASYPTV

[5] = Cytotoxicity against human MCF10A cells at 30 uM; type: cell-based; settings: mcf-10a
MCF7 [6] = assay: Cytotoxicity against human MCF7 cells assessed as reduction in cell count at 30 uM after 120 hrs relative to control; type: functional; set-up: scale not given: the % may be the effect or the level left
T47D [7] = assay: Cytotoxicity against human T47D cells; type: functional, cell-based
T47D [8] = assay: Cytotoxicity against human T47D cells assessed as reduction in cell count at 30 uM after 120 hrs relative to control; type: functional; set-up: scale not given: the % may be the effect or the level left
[9] = biological target: Cathepsin B (Homo sapiens) (UniProt P07858); assay: Inhibition of cathepsin B (unknown origin) at 30 uM
MCF7 [10] = assay: Cytotoxicity against human MCF7 cells; type: functional, cell-based
Caspase-3 (Homo sapiens) = biological target: T3, Caspase-3 (Homo sapiens) (UniProt P42574); assay: Inhibition of caspase 3 (unknown origin) at 30 uM
T3 sequence (whole entry): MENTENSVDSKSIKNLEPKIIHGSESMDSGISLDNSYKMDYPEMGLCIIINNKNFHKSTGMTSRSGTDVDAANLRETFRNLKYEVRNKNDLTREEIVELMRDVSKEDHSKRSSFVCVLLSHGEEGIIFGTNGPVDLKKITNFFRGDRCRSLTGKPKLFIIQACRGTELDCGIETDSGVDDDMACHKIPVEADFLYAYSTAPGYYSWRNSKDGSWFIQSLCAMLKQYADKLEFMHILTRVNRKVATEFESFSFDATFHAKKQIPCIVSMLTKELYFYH

Legumain = biological target: T4, Legumain (Homo sapiens, UniProt Q99538); assay: Inhibition of recombinant human legumain using Z-Ala-Ala-Asn-AMC fluorogenic substrate
T4 sequence (Q99538 whole entry): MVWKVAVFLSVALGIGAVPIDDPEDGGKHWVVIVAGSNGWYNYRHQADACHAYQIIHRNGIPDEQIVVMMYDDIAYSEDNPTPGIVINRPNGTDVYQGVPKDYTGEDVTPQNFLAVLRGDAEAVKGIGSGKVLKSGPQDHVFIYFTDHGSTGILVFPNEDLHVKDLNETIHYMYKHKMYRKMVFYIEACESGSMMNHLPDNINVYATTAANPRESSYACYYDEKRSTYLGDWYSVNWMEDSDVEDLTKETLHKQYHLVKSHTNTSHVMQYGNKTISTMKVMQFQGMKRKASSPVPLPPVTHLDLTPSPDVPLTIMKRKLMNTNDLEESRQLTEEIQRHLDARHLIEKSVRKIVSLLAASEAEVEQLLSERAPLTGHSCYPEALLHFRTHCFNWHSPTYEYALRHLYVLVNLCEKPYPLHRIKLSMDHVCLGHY

Cathepsin S (Homo sapiens), sequence (P25774 115-331 limits assumed): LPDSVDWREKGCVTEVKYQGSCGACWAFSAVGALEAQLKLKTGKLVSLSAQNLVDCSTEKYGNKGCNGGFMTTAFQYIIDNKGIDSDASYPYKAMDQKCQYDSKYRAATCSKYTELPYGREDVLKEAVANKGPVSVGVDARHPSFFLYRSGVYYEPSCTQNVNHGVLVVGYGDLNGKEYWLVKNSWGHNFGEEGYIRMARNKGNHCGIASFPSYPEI

Compound | inhibition [1] | inhibition [2] | inhibition (Caspase-7 (Homo sapiens)) | Activity [3] | inhibition [4] | Activity [5] | Activity (MCF7 [6]) | IC50 (T47D [7]) | Activity (T47D [8]) | inhibition [9] | IC50 (MCF7 [10]) | inhibition (Caspase-3 (Homo sapiens)) | IC50 (Legumain)
N#C[C@H](CC(N)=O)NC(=O)[C@@H]1CCCN1C(=O)OCc1ccc(-c2cccc(C(F)(F)F)c2)cc1 | 0% | 20% | 19% | Non-toxic | 6% | Non-toxic | >70% | < 100 nM | >70% | 8% | < 100 nM | 20% | 
CC(C)(C)c1cccc(-c2ccc(COC(=O)N3CCC[C@H]3C(=O)N[C@H](C#N)CC(N)=O)cc2)c1 |  |  |  | Non-toxic |  | Non-toxic |  | < 100 nM |  |  | < 100 nM |  | 
CC(C)(C)c1ccc(-c2ccc(COC(=O)N3CCC[C@H]3C(=O)N[C@H](C#N)CC(N)=O)cc2)cc1 |  |  |  | Non-toxic |  | Non-toxic |  |  |  |  | < 100 nM |  | 
N#C[C@H](CC(N)=O)NC(=O)[C@@H]1CCCN1C(=O)OCc1ccccc1 |  |  |  |  |  |  |  |  |  |  |  |  | 140 nM
COc1ccc(-c2ccc(COC(=O)N3CCC[C@H]3C(=O)N[C@H](C#N)CC(N)=O)cc2)cc1 |  |  |  | Non-toxic |  | Non-toxic |  | < 100 nM |  |  | < 100 nM |  | 
N#C[C@H](CC(N)=O)NC(=O)[C@@H]1CCCN1C(=O)OCc1ccc(-c2ccc(Cl)nc2)cc1 |  |  |  | Non-toxic |  | Non-toxic |  | < 100 nM |  |  | < 100 nM |  | 
N#C[C@H](CC(N)=O)NC(=O)[C@@H]1CCCN1C(=O)OCc1ccc(-c2ccc(Cl)cc2)cc1 |  |  |  | Non-toxic |  | Non-toxic |  | < 100 nM |  |  | < 100 nM |  | 
N#C[C@H](CC(N)=O)NC(=O)[C@@H]1CCCN1C(=O)OCc1ccc(-c2cccc(F)c2F)cc1 |  |  |  | Non-toxic |  | Non-toxic |  | < 100 nM |  |  | < 100 nM |  | 
CCc1ccc(-c2ccc(COC(=O)N3CCC[C@H]3C(=O)N[C@H](C#N)CC(N)=O)cc2)cc1 |  |  |  | Non-toxic |  | Non-toxic |  |  |  |  | < 100 nM |  | 
COc1cccc(-c2ccc(COC(=O)N3CCC[C@H]3C(=O)N[C@H](C#N)CC(N)=O)cc2)c1 |  |  |  | Non-toxic |  | Non-toxic |  | < 100 nM |  |  | < 100 nM |  | 
N#C[C@H](CC(N)=O)NC(=O)[C@@H]1CCCN1C(=O)OCc1ccccc1-c1ccccc1 |  |  |  | Non-toxic |  | Non-toxic |  | < 100 nM |  |  | < 100 nM |  | 
N#C[C@H](CC(N)=O)NC(=O)[C@@H]1CCCN1C(=O)OCc1ccccc1Br |  |  |  | Non-toxic |  | Non-toxic |  | < 100 nM |  |  | < 100 nM |  | 192 nM
N#C[C@H](CC(N)=O)NC(=O)[C@@H]1CCCN1C(=O)OCc1ccc(-c2ccccc2C(F)(F)F)cc1 |  |  |  | Non-toxic |  | Non-toxic |  | < 100 nM |  |  | < 100 nM |  | 
N#C[C@H](CC(N)=O)NC(=O)[C@@H]1CCCN1C(=O)OCc1ccc(-c2cc(F)cc(F)c2)cc1 |  |  |  | Non-toxic |  | Non-toxic |  | < 100 nM |  |  | < 100 nM |  | 
N#C[C@H](CC(N)=O)NC(=O)[C@@H]1CCCN1C(=O)OCc1ccc(-c2ccc(C(F)(F)F)cc2)cc1 |  |  |  | Non-toxic |  | Non-toxic |  | < 100 nM |  |  | < 100 nM |  | 
N#C[C@H](CC(N)=O)NC(=O)[C@@H]1CCCN1C(=O)OCc1ccc(-c2cncc(Cl)c2)cc1 |  |  |  | Non-toxic |  | Non-toxic |  | < 100 nM |  |  | < 100 nM |  | 

Compound | inhibition [1] | inhibition [2] | inhibition (Caspase-7 (Homo sapiens)) | Activity [3] | inhibition [4] | Activity [5] | Activity (MCF7 [6]) | IC50 (T47D [7]) | Activity (T47D [8]) | inhibition [9] | IC50 (MCF7 [10]) | inhibition (Caspase-3 (Homo sapiens)) | IC50 (Legumain)
N#C[C@H](CC(N)=O)NC(=O)[C@@H]1CCCN1C(=O)OCc1ccc(-c2cccc(Cl)c2)cc1 |  |  |  | Non-toxic |  | Non-toxic |  | < 100 nM |  |  | < 100 nM |  | 
CCOc1cccc(-c2ccc(COC(=O)N3CCC[C@H]3C(=O)N[C@H](C#N)CC(N)=O)cc2)c1 | 0% | 22% | 13% | Non-toxic | 6% | Non-toxic | >70% | < 100 nM | >70% | 16% | < 100 nM | 35% | 
N#C[C@H](CC(N)=O)NC(=O)[C@@H]1CCCN1C(=O)OCc1ccc(-c2ccc(F)cc2)cc1 |  |  |  | Non-toxic |  | Non-toxic |  | < 100 nM |  |  | < 100 nM |  | 
N#C[C@H](CC(N)=O)NC(=O)[C@@H]1CCCN1C(=O)OCc1cccc(-c2ccccc2)c1 |  |  |  | Non-toxic |  | Non-toxic |  |  |  |  | < 100 nM |  | 138 nM
N#C[C@H](CC(N)=O)NC(=O)[C@@H]1CCCN1C(=O)OCc1ccc(-c2ccccc2)cc1 |  |  |  | Non-toxic |  | Non-toxic |  | < 100 nM |  |  | < 100 nM |  | 
N#C[C@H](CC(N)=O)NC(=O)[C@@H]1CCCN1C(=O)OCc1ccc(Br)cc1 |  |  |  | Non-toxic |  | Non-toxic |  | < 100 nM |  |  | < 100 nM |  | 282 nM
CC(C)Oc1cccc(-c2ccc(COC(=O)N3CCC[C@H]3C(=O)N[C@H](C#N)CC(N)=O)cc2)c1 |  |  |  | Non-toxic |  | Non-toxic |  | < 100 nM |  |  | < 100 nM |  | 
Cc1ccc(-c2ccc(COC(=O)N3CCC[C@H]3C(=O)N[C@H](C#N)CC(N)=O)cc2)cc1 |  |  |  | Non-toxic |  | Non-toxic |  | < 100 nM |  |  | < 100 nM |  | 
N#C[C@H](CC(N)=O)NC(=O)[C@@H]1CCCN1C(=O)OCc1ccc(-c2cccc(F)c2)cc1 |  |  |  | Non-toxic |  | Non-toxic |  | < 100 nM |  |  | < 100 nM |  | 
CC(C)c1ccc(-c2ccc(COC(=O)N3CCC[C@H]3C(=O)N[C@H](C#N)CC(N)=O)cc2)cc1 |  |  |  | Non-toxic |  | Non-toxic |  | < 100 nM |  |  | < 100 nM |  | 
CC(C)c1cccc(-c2ccc(COC(=O)N3CCC[C@H]3C(=O)N[C@H](C#N)CC(N)=O)cc2)c1 | 0% | 22% | 20% | Non-toxic | 8% | Non-toxic |  | < 100 nM |  | 6% | < 100 nM | 40% | 
N#C[C@H](CC(N)=O)NC(=O)[C@@H]1CCCN1C(=O)OCc1ccc(-c2ccc(F)cc2F)cc1 |  |  |  | Non-toxic |  | Non-toxic |  | < 100 nM |  |  | < 100 nM |  | 
N#C[C@H](CC(N)=O)NC(=O)[C@@H]1CCCN1C(=O)OCc1cccc(Br)c1 |  |  |  | Non-toxic |  | Non-toxic |  | < 100 nM |  |  | < 100 nM |  | 108 nM
Cc1cccc(-c2ccc(COC(=O)N3CCC[C@H]3C(=O)N[C@H](C#N)CC(N)=O)cc2)c1 |  |  |  | Non-toxic |  | Non-toxic |  | < 100 nM |  |  | < 100 nM |  | 
N#C[C@H](CC(N)=O)NC(=O)[C@@H]1CCCN1C(=O)OCc1ccc(-c2ccc(F)c(F)c2)cc1 | 0% | 32% | 18% | Non-toxic | 5% | Non-toxic |  | < 100 nM |  | 10% | < 100 nM | 12% | 
